The results in this text go back to ChEMBL document CHEMBL3507680, “University of Dundee, Gates Library screen for HepG2 cell viability”.

A short description of this data set: Human HepG2 cell viability assay in 384 well format. It is filed as toxicity, cell-based. Also on record: dose 125 nL, time 70.5 hour; concentration not given beside the values. To be noted: HepG2 cells, read-out: Inhibition.
For the compound `Cc1nc(C2CCCN2C(=O)c2ccc3c(c2)nc(C)n3C)no1` (centres undefined), the cytotoxicity at 70.5 h was 3.45%.

As for `O=S(=O)(CCN1CCc2c(ncn2C2CC2)C1)c1ccccc1`, the cytotoxicity at 70.5 h was 16.5%. The result for `Cc1cccc(N2CCN(C(=O)NC(C)c3nncn3C)CC2)c1` (centres undefined) reads 20.1%. The result for `Cc1cc(NC(=O)NCC2COc3ccccc3C2)no1` (centres undefined) reads 52%; that for `Cc1noc(C)c1C(=O)NCc1ccc(N2CCC(C)CC2)nc1`, 1.58%. `COc1ncccc1CNC(=O)NC(C)Cn1cccn1` (centres undefined): the cytotoxicity at 70.5 h was -14.1%. With `Cc1noc(C)c1CN(C)C(=O)c1ccc(C(F)(F)F)nc1`, the cytotoxicity at 70.5 h is -0.00923%. With `CCN1CCN(c2ccc(CNC(=O)c3cc(C)on3)cn2)CC1`, the cytotoxicity at 70.5 h was -4.09%. Regarding `CC(Cn1cccn1)NC(=O)NCc1ccnc(OC2CCCC2)c1` (centres undefined), the cytotoxicity at 70.5 h is -8.79%. Regarding `CC(Cn1cccn1)NC(=O)NCc1ccc(OC2CCCC2)nc1` (centres undefined), the cytotoxicity at 70.5 h came out at 19.5%. Regarding `Cc1ccc(OCCN(C)C(=O)NC(C)c2nncn2C)cc1` (centres undefined), the cytotoxicity at 70.5 h was -5.04%.

As for `CC(Cn1ccnc1)NC(=O)NCc1cccnc1OC1CCCC1` (centres undefined), the cytotoxicity at 70.5 h was -8.81%. The result for `CC(NC(=O)N1CCN(c2nccs2)CC1)c1nncn1C` (centres undefined) reads -7.23%. With `O=C(NCCc1coc(-c2ccccc2)n1)NC1CC1` the figure was 20.2%. For the compound `Cc1cnn(CC2CN(CC(=O)N(C)Cc3cnn(C)c3)CCO2)c1` (centres undefined), the cytotoxicity at 70.5 h is -7.34%. Take `O=C(NCCc1coc(-c2ccc(F)cc2)n1)NC1CC1`: the cytotoxicity at 70.5 h is -3.96%. As for `Cc1ccc(-c2nc(CCNC(=O)NC3CCC(O)CC3)co2)cc1` (centres undefined), the cytotoxicity at 70.5 h is 0.284%. With `COc1ccc(C(=O)N2CCCS2(=O)=O)cc1` the figure was -5.25%; with `Cc1ccc(-c2nc(CCNC(=O)NCC(C)(C)C(N)=O)co2)cc1`, -0.0567%; with `CCc1nc(C2CCCN2C(=O)c2cc[nH]n2)no1` (centres undefined), 3.06%.

As to `COc1ccc(-c2noc(CN3CCCC3Cn3cccn3)n2)cc1` (centres undefined), the cytotoxicity at 70.5 h is -1.01%. With `Cc1cccc(-c2noc(CN3CCCCC3Cn3cncn3)n2)c1` (centres undefined), the cytotoxicity at 70.5 h was -6.45%. The result for `Cc1nnc(CN(C)C2CCN(Cc3nc4ccccc4n3C)C2)o1` (centres undefined) reads -1.55%; that for `CCc1nc(C2CCCN2C(=O)c2cc(Cl)c[nH]2)no1` (centres undefined), -2.89%; that for `Cc1nc(CC(=O)N2CCCC2Cn2cccn2)cs1` (centres undefined), -5%. For the compound `Cc1cc(C2CCCN(C(=O)COc3cc(C)on3)C2)n[nH]1` (centres undefined), the cytotoxicity at 70.5 h was -3.29%. In the case of `Cc1cc(NC(=O)CN2CCCC2c2noc(C)n2)n(C)n1` (centres undefined), the cytotoxicity at 70.5 h was -5.38%. With `CCc1nc(CN2CCCN(Cc3nnc(C4CC4)o3)CC2)no1` the figure was -5.98%; with `Cc1nc(C)n(CC2CCCN(CCOc3ccccc3F)C2)n1` (centres undefined), 28.7%; with `CCc1nccn1C1CCCN(C(=O)c2c(C)nsc2NC)C1` (centres undefined), -7.79%.

With `Cn1nc2c(cc1=O)CN(Cc1nc(-c3ccsc3)no1)CC2`, the cytotoxicity at 70.5 h is -19.7%. With `Cc1ccccc1-c1noc(CN2CCc3nn(C)c(=O)cc3C2)n1` the figure was -11.6%. On to `CCc1nc(C2CCCN2CC(=O)Nc2cc(C)nn2C)no1` (centres undefined), for which the cytotoxicity at 70.5 h was -15.1%. With `CC(Cn1cccn1)NC(=O)c1cccs1` (centres undefined) the figure was -9.89%; with `O=C(NCCCN1CCc2ccccc2C1)c1ccccc1Cl`, -7.27%; with `COc1ccc(CNc2cnn(C)c(=O)c2Cl)cc1`, 1.82%. The result for `Cn1ccc(C(=O)NCc2ccc(N3CCOCC3)nc2)cc1=O` reads -12%; that for `Cn1cc(C(=O)NCc2ccc(N3CCCC3)nc2)ccc1=O`, -8.81%. On to `CCCC(C#N)NC(=O)c1cc(Br)c2c(c1)OCCO2` (centres undefined), for which the cytotoxicity at 70.5 h is -11.4%. With `CC(Cc1cccs1)NC(=O)CCn1cccn1` (centres undefined) the figure was -0.682%. Turning to `OC(CNCCn1cccn1)c1ccc(C(F)(F)F)cc1` (centres undefined), the cytotoxicity at 70.5 h was -4.94%. Consider `OC(CNCCn1cccn1)c1cccc(Br)c1` (centres undefined), for which the cytotoxicity at 70.5 h was -8.75%. As for `COCCC(C)NC(=O)c1cc(Br)c2c(c1)OCCO2` (centres undefined), the cytotoxicity at 70.5 h is -10.3%. With `CCC(C)NC(=O)c1cc(Br)c2c(c1)OCCO2` (centres undefined) the figure was -1.67%; with `Cc1cc(OCC(=O)N2CCCC(c3nc(C)c(C)s3)C2)no1` (centres undefined), 11.5%; with `Cc1cc(OCC(=O)N2CCCC(c3nccs3)C2)no1` (centres undefined), -2.96%. As for `Cc1cn2c(n1)CCC(NC(=O)c1oc(Br)cc1C)C2` (centres undefined), the cytotoxicity at 70.5 h is -11.5%. With `CNc1snc(C)c1C(=O)N1CCCC(n2nc(C)nc2C)C1` (centres undefined) the figure was -10.6%. With `Cc1cn2c(n1)CCC(NC(=O)c1[nH]ncc1Br)C2` (centres undefined) the figure was -9.45%; with `Cc1nc(C2CCCN2CC(=O)Nc2cc(C(C)(C)C)nn2C)no1` (centres undefined), -6.05%. The result for `Cn1ncc(NCc2cccc(OCC(F)(F)F)c2)c(Cl)c1=O` reads 18.3%; that for `CCn1cnnc1CNC(=O)N1CCC(C)CC1`, 16.5%; that for `O=C(CN1CCOC(CNc2cccnn2)C1)NCc1ccccn1` (centres undefined), 19%. As for `COc1c(C2CCCN2Cc2noc(C(C)C)n2)c(C)nn1C` (centres undefined), the cytotoxicity at 70.5 h came out at 28.5%. With `COc1c(CNC(c2ccc(F)cc2)c2nccn2C)c(C)nn1C` (centres undefined) the figure was 45.1%; with `CN(C)C(=O)CN1CCN(C(=O)Cc2csc(-c3ncccn3)n2)CC1`, -4.31%. The result for `CC(C(=O)N1CCCN(c2ccc(C#N)cc2)CC1)n1ccnc1` (centres undefined) reads -1.24%; that for `CCN(Cc1ccc2c(c1)OCO2)C(=O)c1ccc(C)[nH]c1=O`, 35.4%; that for `NC(=O)CC1CCN(C(=O)CCOc2ccc(Cl)cc2)CC1`, -1.2%.

Turning to `COc1c(CNCc2ccc(N(C)C)nc2)c(C(C)C)nn1C`, the cytotoxicity at 70.5 h was 1.68%. The result for `Cc1nc2ccccc2c(=O)n1CCC(=O)N1CCSCC1` reads -4.52%. The result for `COCC(=O)NC(C)Cc1cccc(Br)c1` (centres undefined) reads 33.7%; that for `Cc1nn(C)c(N(C)C)c1CNC1CCOc2c(F)cccc21` (centres undefined), 13.3%. The result for `COC1CCN(C(=O)Cc2csc(-c3ncccn3)n2)CC1` reads -3.38%; that for `Cc1cccc(C(=O)NC(CN2CCCC2=O)c2ccccc2)n1` (centres undefined), 0.515%. Turning to `CCn1c(CN2CCN(CC(N)=O)CC2)nc2c(F)cccc21`, the cytotoxicity at 70.5 h was -0.996%. Take `CCNc1cc2c(nn1)CCN(C(=O)c1ccc3cc[nH]c3c1)C2`: the cytotoxicity at 70.5 h stood at 2.8%. The result for `COc1c(CNC(c2nccn2C)C(C)C)c(C)nn1C` (centres undefined) reads -6.48%; that for `CS(=O)(=O)N1CCCCCC1C1CCN(c2ncccc2C#N)CC1` (centres undefined), -0.285%. `Cn1cc(CNC2CCCN(Cc3noc(C4CC4)n3)C2)cn1` (centres undefined): the cytotoxicity at 70.5 h is 3.36%. With `CC(O)CN1CCN(C(=O)c2ccc(Br)o2)CC1` (centres undefined) the figure was -19.8%; with `COc1cccc(COCC(O)CN2CC(n3cccn3)C2)c1` (centres undefined), -6.05%; with `N#CC1(C(=O)N2CCN(c3nccs3)CC2)CCCCC1`, -10.1%.

For `CCOc1ccccc1OC1CCN(C(=O)c2ccc(=O)[nH]n2)CC1`, the cytotoxicity at 70.5 h is -7.24%.
